Experimental data from BigSolDB 2.1.

CCOC(=O)[C@@H](C)Oc1ccc(Oc2nc3ccc(Cl)cc3o2)cc1
solubility (mole fraction)
Details	278.15 K	283.15 K	288.15 K	293.15 K	298.15 K	303.15 K	308.15 K	313.15 K	318.15 K	323.15 K
in ethanol	0.000972	0.00121	0.0015	0.00186	0.00224	0.00266	0.00314	0.00376	0.00446	0.00534
in water	1.93e-06	2.91e-06	4.12e-06	5.68e-06	7.36e-06	9.61e-06	1.24e-05	1.59e-05	2.03e-05	2.57e-05
